Experimental findings from PubChem BioAssay AID328 (DTP/NCI, 2004) are described below.

This assay has as its system BDF1 mice, P388 leukemia ip, median survival T/C. Nature of the assay: NCI In Vivo Anticancer Drug Screen. Data for tumor model P388 Leukemia (intraperitoneal) in B6D2F1 (BDF1) mice. The settings on record: endpoint: median survival time, higher = longer survival. The essentials: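 Read-out is survival of treated animals expressed relative to the vehicle group, as a T/C ratio.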

Setting [1] is: dose: 50.0 mg/kg/injection, schedule: Q01DX009 (ip), vehicle: saline.
Setting [2] is: dose: 50.0 mg/kg/injection, schedule: Q04DX003 (ip), vehicle: saline.
Where [3] appears, read: dose: 100.0 mg/kg/injection, schedule: Q01DX009 (ip), vehicle: saline.
Setting [4] is: dose: 100.0 mg/kg/injection, schedule: Q04DX003 (ip), vehicle: saline.
Setting [5] is: dose: 200.0 mg/kg/injection, schedule: Q01DX009 (ip), vehicle: saline.
[6] abbreviates: dose: 200.0 mg/kg/injection, schedule: Q04DX003 (ip), vehicle: saline.
The mark [7] stands for this setting: dose: 400.0 mg/kg/injection, schedule: Q01DX009 (ip), vehicle: saline.
Setting [8] is: dose: 400.0 mg/kg/injection, schedule: Q04DX003 (ip), vehicle: saline.
[9] abbreviates: dose: 100.0 mg/kg/injection, schedule: Q01DX009 (ip), vehicle: saline with Tween-80.
The mark [10] stands for this setting: dose: 200.0 mg/kg/injection, schedule: Q01DX009 (ip), vehicle: saline with Tween-80.
Where [11] appears, read: dose: 25.0 mg/kg/injection, schedule: Q01DX009 (ip), vehicle: saline with Tween-80.
Where [12] appears, read: dose: 100.0 mg/kg/injection, schedule: Q04DX003 (ip), vehicle: saline with Tween-80.
Where [13] appears, read: dose: 200.0 mg/kg/injection, schedule: Q04DX003 (ip), vehicle: saline with Tween-80.
Where [14] appears, read: dose: 400.0 mg/kg/injection, schedule: Q04DX003 (ip), vehicle: saline with Tween-80.

Values joined by “and” are separate entries in the source; they are usually repeats but may differ in a detail not shown here. Identical values can stand only once. Inconclusive results and toxic doses are left out.

In the case of `COc1ccc(NC(=O)CC(C)=O)cc1`, the T/C by setting is: (dose: 6.25 mg/kg/injection, schedule: Q01DX009 (ip), vehicle: saline) 98 % of control; (dose: 12.5 mg/kg/injection, schedule: Q01DX009 (ip), vehicle: saline) 91 % of control; (dose: 25.0 mg/kg/injection, schedule: Q04DX003 (ip), vehicle: saline) 111 % of control; under setting [1], 108 % of control; under setting [2], 102 % of control; under setting [3], 110 % of control. Also, the T/C by setting is: under setting [4], 98 % of control; under setting [5], 106 % of control; under setting [6], 116 % of control; under setting [7], 98 % of control; under setting [8], 93 % of control.

As to `ClC1=C(Cl)C2(Cl)C3C4CC(C5OC45)C3C1(Cl)C2(Cl)Cl` (stereo unspecified), for the setting “dose: 3.13 mg/kg/injection, schedule: Q01DX009 (ip), vehicle: suspension in saline”, the T/C is 96 % of control.

In the case of `c1c[nH]cn1`, the T/C under setting [3] was 90 % of control; the T/C under setting [4] was 95 % of control; the T/C under setting [5] was 100 % of control; the T/C under setting [6] is 104 % of control; the T/C under setting [7] was 118 % of control; the T/C under setting [8] is 95 % of control.

For `O=C(Nc1ccc([N+](=O)[O-])cc1Cl)N(CCO)C1CCCCC1`, the T/C by setting is: under setting [9], 105 % of control; under setting [10], 100 % of control; (dose: 400.0 mg/kg/injection, schedule: Q01DX009 (ip), vehicle: saline with Tween-80) 90 % of control.

Turning to `N#Cc1cnc2n(c1=N)CCCCC2`, the T/C (dose: 100.0 mg/kg/injection, schedule: Q04DX003 (ip), vehicle: Klucel (hydroxypropylcellulose) (HPC)) was 94 % of control.

Consider `CCn1cnc2c(=S)nc[nH]c21`, for which the T/C reads like this: (dose: 15.6 mg/kg/injection, schedule: Q01DX010 (ip), vehicle: saline) 100 % of control and 115 % of control; (dose: 31.3 mg/kg/injection, schedule: Q01DX010 (ip), vehicle: saline) 90 % of control and 105 % of control; (dose: 62.5 mg/kg/injection, schedule: Q01DX010 (ip), vehicle: saline) 104 % of control and 115 % of control.

As for `CCCCCCCCCCCC#N`, the T/C by setting is: under setting [3], 95 % of control; under setting [5], 95 % of control; under setting [7], 100 % of control.

Take `O=C(O)C1CSC(c2ccccc2)N1` (stereo unspecified): the T/C was 111 % of control under setting [11], 109 % of control under setting [9] and 100 % of control under setting [10].

Regarding `O=c1[nH]c(C(F)(F)F)nc2c1nc1n2CCC1`, the T/C reads like this: under setting [12], 104 % of control; under setting [13], 100 % of control; under setting [14], 100 % of control.

Take `O=C1CSc2ccccc2N1`: the T/C is 109 % of control (dose: 50.0 mg/kg/injection, schedule: Q01DX001 (ip), vehicle: Klucel (hydroxypropylcellulose) (HPC)); 100 % of control (dose: 100.0 mg/kg/injection, schedule: Q01DX001 (ip), vehicle: Klucel (hydroxypropylcellulose) (HPC)); 116 % of control (dose: 200.0 mg/kg/injection, schedule: Q01DX001 (ip), vehicle: Klucel (hydroxypropylcellulose) (HPC)).

As for `CCSC(C)C`, the T/C under setting [4] is 100 % of control, the T/C under setting [6] is 104 % of control and the T/C under setting [8] is 95 % of control.

For `NC(Cn1cc(N(CCCl)CCCl)c(=O)[nH]c1=O)C(=O)O` (stereo unspecified), the T/C was 175 % of control (dose: 6.0 mg/kg/injection, schedule: Q01DX009 (ip), vehicle: saline); 189 % of control (dose: 12.0 mg/kg/injection, schedule: Q01DX009 (ip), vehicle: saline); 215 % of control (dose: 24.0 mg/kg/injection, schedule: Q01DX009 (ip), vehicle: saline).

Turning to `CC1(C)CCc2c(ccc(C(=O)/C=C\c3ccccc3)c2O)O1`, the T/C is 109 % of control (dose: 1.25 mg/kg/injection, schedule: Q01DX009 (ip), vehicle: Klucel (hydroxypropylcellulose) (HPC)); 107 % of control (dose: 2.5 mg/kg/injection, schedule: Q01DX009 (ip), vehicle: Klucel (hydroxypropylcellulose) (HPC)); 102 % of control (dose: 5.0 mg/kg/injection, schedule: Q01DX009 (ip), vehicle: Klucel (hydroxypropylcellulose) (HPC)); 107 % of control (dose: 10.0 mg/kg/injection, schedule: Q01DX009 (ip), vehicle: Klucel (hydroxypropylcellulose) (HPC)); 100 % of control (dose: 20.0 mg/kg/injection, schedule: Q01DX009 (ip), vehicle: Klucel (hydroxypropylcellulose) (HPC)); 91 % of control (dose: 40.0 mg/kg/injection, schedule: Q01DX009 (ip), vehicle: Klucel (hydroxypropylcellulose) (HPC)).

As to `C[C@@H]1C[C@@]2(O[C@@H]2C)C(=O)O[C@@H]2CCN3CC=C(COC(=O)[C@]1(C)O)[C@H]23`, the T/C is 110 % of control (dose: 20.0 mg/kg/injection, schedule: Q01DX010 (ip), vehicle: carboxymethylcellulose (CMC)) and 100 % of control (dose: 40.0 mg/kg/injection, schedule: Q01DX010 (ip), vehicle: carboxymethylcellulose (CMC)).

As to `CCCCCCCCCCCC[n+]1cccc2ccccc21`, the T/C (dose: 0.15 mg/kg/injection, schedule: Q01DX009 (ip), vehicle: saline) is 100 % of control; the T/C (dose: 0.17 mg/kg/injection, schedule: Q04DX003 (ip), vehicle: saline) is 118 % of control; the T/C (dose: 0.34 mg/kg/injection, schedule: Q01DX009 (ip), vehicle: saline) is 90 % of control and 122 % of control; the T/C (dose: 0.35 mg/kg/injection, schedule: Q01DX009 (ip), vehicle: saline) is 163 % of control; the T/C (dose: 0.35 mg/kg/injection, schedule: Q04DX003 (ip), vehicle: saline) is 122 % of control; the T/C (dose: 0.7 mg/kg/injection, schedule: Q01DX009 (ip), vehicle: saline) is 157 % of control. Further, under “dose: 0.7 mg/kg/injection, schedule: Q04DX003 (ip), vehicle: saline”, the T/C was 118 % of control.

As for `CC(=O)OCC(OC(C)=O)C(OC(C)=O)C(C#N)OC(C)=O` (stereo unspecified), the T/C reads like this: (dose: 50.0 mg/kg/injection, schedule: Q04DX003 (ip), vehicle: saline with Tween-80) 95 % of control; under setting [12], 95 % of control.

Consider `C[As](C)(=S)[As](C)(C)=S`, for which the T/C by setting is: (dose: 6.25 mg/kg/injection, schedule: Q01DX009 (ip), vehicle: saline with Tween-80) 116 % of control; (dose: 12.5 mg/kg/injection, schedule: Q01DX009 (ip), vehicle: saline with Tween-80) 114 % of control; under setting [11], 119 % of control.

Turning to `Cc1ccc2cc3c(ccc4ccccc43)c3c2c1CC3`, the T/C is, setting by setting: (dose: 7.4 mg/kg/injection, schedule: Q01DX009 (ip), vehicle: saline with Tween-80) 117 % of control; under setting [11], 122 % of control; (dose: 50.0 mg/kg/injection, schedule: Q01DX009 (ip), vehicle: saline with Tween-80) 154 % of control; (dose: 75.0 mg/kg/injection, schedule: Q01DX009 (ip), vehicle: saline with Tween-80) 122 % of control; (dose: 88.0 mg/kg/injection, schedule: Q04DX003 (ip), vehicle: saline with Tween-80) 118 % of control; under setting [9], 162 % of control. Further, the T/C (dose: 132.0 mg/kg/injection, schedule: Q04DX003 (ip), vehicle: saline with Tween-80) was 118 % of control; the T/C (dose: 300.0 mg/kg/injection, schedule: Q01DX009 (ip), vehicle: saline with Tween-80) was 163 % of control; the T/C (dose: 300.0 mg/kg/injection, schedule: Q04DX003 (ip), vehicle: saline with Tween-80) was 118 % of control.

As for `CCCCCCCCCCCC[N+](C)(C)C` (tested in a mixture with another compound), the T/C (dose: 9.2 mg/kg/injection, schedule: Q01DX009 (ip), vehicle: saline) is 107 % of control.

As for `O=C(O)c1ccccc1-c1ccccc1C(=O)O`, the T/C by setting is: under setting [12], 95 % of control; under setting [13], 104 % of control; under setting [14], 104 % of control.

In the case of `Cc1ccc(S(=O)(=O)O)cc1`, the T/C reads like this: (dose: 25.0 mg/kg/injection, schedule: Q01DX009 (ip), vehicle: saline) 91 % of control; under setting [1], 91 % of control; under setting [2], 100 % of control; under setting [3], 108 % of control; under setting [4], 95 % of control.
